Measured values: patent publication US20220378948A1, “METAL-BINDING PEPTIDE, AND USE THEREOF” (The Jikei University, priority 2019, published 2022)

Test: Adsorption on stent in plasma, fluorescence microscopy
Type: binding
Details: stent immersed in human plasma (37° C., 30 minutes), then 0.5 mM solution
Protocol: Next, in order to analyze the binding ability of the peptide of the present invention and the 4-branched peptide complex to a stent existing in plasma, whether or not the peptide of the present invention also binds to a stent that has been allowed to come into contact with plasma was examined.
That is, a stent was immersed in human plasma (37° C., 30 minutes), and was then removed from the plasma. The stent was then immersed in each peptide solution (0.5 mM) and a 4-branched peptide complex solution (0.5 mM) (37° C., 30 minutes). Thereafter, the stent was sufficiently rinsed with PBS, and was then observed under an upright fluorescence microscope.

SEQ ID NO: 9: control peptide that does not bind to a Co—Cr stent; sequence not printed in the text (MKAHHSQLYPRH)
binding to the surface of a stent in human plasma (fluorescence): does not bind to a Co—Cr stent
